# Measured values reported in paper PMC6270290, “Synthesis of Bistetrahydroquinolines as Potential Anticholinesterasic Agents by Double Diels-Alder Reactions” (Molecules, 2013).
# Molecular target: acetylcholinesterase (AChE) (Electrophorus electricus, UniProt O42275)
# Test: Ellman colorimetric assay, acetylthiocholine hydrolysis
# Assay type: biochemical
# acetylcholinesterase (AChE), sequence (O42275 24-633): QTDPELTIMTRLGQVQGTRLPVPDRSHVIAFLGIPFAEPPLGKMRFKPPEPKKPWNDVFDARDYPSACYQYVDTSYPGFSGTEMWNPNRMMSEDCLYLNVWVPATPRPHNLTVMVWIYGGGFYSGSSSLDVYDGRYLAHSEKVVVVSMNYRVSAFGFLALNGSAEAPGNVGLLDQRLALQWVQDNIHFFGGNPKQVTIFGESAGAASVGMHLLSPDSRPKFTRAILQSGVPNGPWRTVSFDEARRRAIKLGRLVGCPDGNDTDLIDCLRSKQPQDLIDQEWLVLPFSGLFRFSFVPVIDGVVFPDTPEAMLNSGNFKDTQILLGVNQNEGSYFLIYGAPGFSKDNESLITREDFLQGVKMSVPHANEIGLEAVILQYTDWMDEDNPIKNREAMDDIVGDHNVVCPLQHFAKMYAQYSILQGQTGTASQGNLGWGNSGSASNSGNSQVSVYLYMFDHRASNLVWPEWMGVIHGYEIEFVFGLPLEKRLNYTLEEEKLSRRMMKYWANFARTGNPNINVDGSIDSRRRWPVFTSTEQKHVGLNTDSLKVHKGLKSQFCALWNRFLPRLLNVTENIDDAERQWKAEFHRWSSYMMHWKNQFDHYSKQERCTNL
smiles,measurement,value
"COc1ccc2c(c1)C(N1CCCC1=O)CC(c1cccc(C3CC(N4CCCC4=O)c4cc(OC)ccc4N3)c1)N2 (stereo not shown) [5c, 1,3-bis(6'-Methoxy-4'-(2-oxopyrrolidinyl-1)-1',2',3',4'-tetrahydroquinolin-2-yl)benzene]",IC50,122 µM
